From publication PMC7226869 (ACS Omega, 2020)
Where two headings read alike, the source gives them in different places.

Key:
[1] = biological target: T1, New Delhi metallo-β-lactamase-1 (NDM-1) (Klebsiella pneumoniae, UniProt E9NWK5); experiment: 1H-15N HSQC NMR titration; type: binding
[2] = biological target: KPC-2 (Klebsiella pneumoniae, UniProt Q93LQ9); experiment: carbapenemase inhibition at a single concentration; type: biochemical; settings: read-out: % inhibition at 50 μM
[3] = biological target: T1, New Delhi metallo-β-lactamase-1 (NDM-1); experiment: imipenem hydrolysis by purified NDM-1; type: biochemical
[4] = biological target: OXA-48 (Klebsiella pneumoniae, UniProt Q6XEC0); experiment: carbapenemase inhibition at a single concentration; type: biochemical; settings: read-out: % inhibition at 50 μM
[5] = biological target: T1, New Delhi metallo-β-lactamase-1 (NDM-1); experiment: imipenem hydrolysis by purified NDM-1; type: biochemical; remark: listed apart in the source

Sequence of OXA-48 (Q6XEC0 23-265 limits assumed): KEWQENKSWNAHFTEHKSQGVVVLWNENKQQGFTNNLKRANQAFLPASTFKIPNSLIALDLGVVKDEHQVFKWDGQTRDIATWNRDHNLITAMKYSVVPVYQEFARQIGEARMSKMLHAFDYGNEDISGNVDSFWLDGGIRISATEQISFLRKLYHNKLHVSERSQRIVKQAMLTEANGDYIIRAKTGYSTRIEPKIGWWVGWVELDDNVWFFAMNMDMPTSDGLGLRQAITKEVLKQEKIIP

O=c1c(O)c(-c2ccc(O)cc2O)oc2cc(O)cc(O)c12 [morin]
Kd [1]: ~300 µM

O=c1c(O)c(-c2cc(O)c(O)c(O)c2)oc2cc(O)cc(O)c12 [myricetin]
inhibition at 50 µM [2]: 78%
IC50 [3]: 3.3 µM
inhibition at 50 µM [4]: 90%

O=c1c(O)c(-c2ccc(O)c(O)c2)oc2cc(O)cc(O)c12 [quercetin]
IC50 [5]: 5 to 10 µM
